Data from patent US20170042890A1, “METHODS OF REDUCING DECLINE IN VITAL CAPACITY” (Cytokinetics, Inc., priority 2014, published 2017).

Tests used:
patients with ALS [1] = assay: BENEFIT-ALS clinical trial: Sniff Nasal Inspiratory Pressure (SNIP); assay type: in vivo, human
Description: (§1) BENEFIT-ALS was a multi-national, randomized, stratified, double-blind, placebo-controlled, parallel-group study of tirasemtiv in patients with ALS. The study consisted of a screening period, an open-label/lead-in period, and a double-blind treatment period. Following screening, eligible patients received open-label tirasemtiv, 125 mg BID, for 7 days. Patients who tolerated the 7-day lead-in period were randomized in a 1:1 ratio to tirasemtiv or placebo. Over the first 3 weeks of double-blind treatment, patients randomized to tirasemtiv had their TDD up-titrated as follows: 250 mg for 7 days, then 375 mg for 7 days, then 500 mg for 7 days. […] However, in such cases, dose escalation was re-attempted at least one additional time. The highest tolerable tirasemtiv dose for each individual patient was the dose that patient received for the remaining 9 weeks (i.e., the maximum tolerated dose [MTD] phase) of the study. Patients randomized to placebo underwent a corresponding dummy dose titration.
(§2) Randomization was stratified by riluzole use. […] Clinical assessments occurred every 4 weeks during double-blind treatment; patients also returned for follow-up evaluations at 1 and 4 weeks after their final dose of double-blind study medication (FIG. 1).
(§3) The secondary objectives included assessments of the effect of tirasemtiv versus placebo on measures of respiratory function (Maximum Voluntary Ventilation (MVV), Sniff Nasal Inspiratory Pressure (SNIP), SVC) and skeletal muscle function including handgrip fatigue and muscle-strength mega-score (i.e., the average z-score for muscle strength measurements across the following tested bilateral muscle groups: elbow flexion, wrist extension, knee extension, ankle dorsiflexion, and handgrip)). Secondary endpoints included the changes from baseline in each of the above mentioned measures (MVV, SNIP, SVC, and muscle-strength mega-score) for the Modified FAS, and the slope of each of the measures from baseline to Week 12 for the Modified FAS.
(§4) Eligible patients were males and females, 18 years of age and older, with a diagnosis of familial or sporadic ALS and meeting the World Federation of Neurology El Escorial criteria of definite ALS, probable ALS, laboratory-supported probable ALS, or possible ALS. Patients were to have an upright SVC>50% of predicted for age, height, and sex, a diminished, but measurable, maximum voluntary grip strength in at least one hand (i.e., between 10-50 pounds for females and 10-70 pounds for males), and at least 4 of the 12 ALSFRS-R questions were to have been scored as a 2 or 3. Patients were to be able to swallow tablets without crushing, and in the opinion of the investigator, were expected to do so for the duration of the study. If the patient needed a caregiver, the caregiver was to be able to observe the patient's status. Clinical laboratory results were to be either within their respective normal ranges or if outside the normal range, deemed not clinically significant by the investigator. […] Patients not taking riluzole prior to study entry were not permitted to take riluzole at any dose during the course of the study.
(§5) Safety data presented were based on the safety analysis set, defined as all patients who received at least 1 dose of double-blind study drug. Of the 605 randomized patients, 596 (295 placebo, 301 tirasemtiv) received at least 1 dose of double-blind study drug and were included in the safety analysis set. Data for the primary and secondary efficacy endpoints were analyzed with the Modified FAS. This analysis set included all patients who received at least 1 dose of double-blind study drug and had at least 1 efficacy assessment during the double-blind treatment period, and excluded 156 patients who were randomized in blocks containing patients affected by a study drug assignment error in which 58 patients randomized to and treated with double-blind tirasemtiv were dispensed double-blind placebo instead. […]

patients with ALS [2] = assay: BENEFIT-ALS clinical trial: muscle strength mega-score; assay type: in vivo, human; settings: for Muscle strength mega-score change from baseline (LS mean): based on percent change from baseline across several muscle groups
Description: as §1, §2, §3, §4, §5

## C#Cc1cnc2nc(O)n(C(CC)CC)c2n1 [Tirasemtiv, 6-ethynyl-1-(pentan-3-yl)-1H-imidazo[4,5-b]pyrazin-2(3H)one]
Patients with ALS [1]; Modified FAS N=178
  SNIP slope from baseline to Week 12: −0.053
Patients with ALS [1]; Week 4, Modified FAS N=178
  SNIP change from baseline (LS mean): −4.33 cm H2O
Patients with ALS [1]; Week 8, Modified FAS N=178
  SNIP change from baseline (LS mean): −3.55 cm H2O
Patients with ALS [1]; Week 12, Modified FAS N=178
  SNIP change from baseline (LS mean): −5.03 cm H2O
Patients with ALS [1]; p=0.012 and 0.050
  SNIP versus placebo, in words: statistically significantly greater decrease in SNIP at Weeks 4 and 8
Patients with ALS [1]; p=0.2108
  SNIP difference in slope (tirasemtiv vs placebo): −0.0312
Patients with ALS [2]; Modified FAS N=178
  Muscle strength mega-score slope from baseline to Week 12: −0.1104
Patients with ALS [2]; Week 4
  Muscle strength mega-score change from baseline (LS mean): −4.36
Patients with ALS [2]; Week 8
  Muscle strength mega-score change from baseline (LS mean): −7.43
Patients with ALS [2]; Week 12
  Muscle strength mega-score change from baseline (LS mean): −10.78
Patients with ALS [2]; p=0.0158
  Muscle strength mega-score difference in slope (tirasemtiv vs placebo): 0.1647
Patients with ALS [2]; p=0.0158 for the difference in slope
  Muscle strength mega-score decline versus placebo, in words: declined more slowly
